In ChEMBL document CHEMBL5360555, “Structure-based discovery of novel α-aminoketone derivatives as dual p53-MDM2/MDMX inhibitors for the treatment of cancer” (Eur J Med Chem, 2023):
Calls of active or inactive are those of the source. The rule behind the calls is not given here.

Tests used:
[1] = test system: HCT-116; experiment: Inhibition of colony formation in human HCT-116 cells incubated at 0.6 uM for 8 to 15 days measured by crystal violet staining based microscopic analysis; format: functional, cell-based; conditions: time 8-15 day
[2] = test system: HCT-116; experiment: Inhibition of cell migration in human HCT-116 cells measured using transwell chamber by crystal violet staining based microscopic analysis; format: functional; conditions: dose 0.2-0.6 µM
[3] = Cytotoxicity against human BEAS-2B cells incubated for 72 hrs by CCK-8 assay; format: toxicity, cell-based
[4] = test system: HCT-116; experiment: Inhibition of cell invasion in human HCT-116 cells measured using transwell chamber by crystal violet staining based microscopic analysis; format: functional; conditions: dose 0.2-0.6 µM
[5] = Antiproliferative activity against human HCT116-p53-null cells overexpressing MDMX assessed as cell growth inhibition incubated for 72 hrs by CCK-8 assay; format: functional, cell-based
[6] = Cytotoxicity against human LO2 cells incubated for 72 hrs by CCK-8 assay; format: toxicity, cell-based, L02
[7] = test system: HCT-116; experiment: Antiproliferative activity against human HCT-116 cells overexpressing MDM2 assessed as cell growth inhibition incubated for 72 hrs by CCK-8 assay; format: functional, cell-based; conditions: HCT-116, 72 h
[8] = test system: SH-SY5Y; experiment: Inhibition of cell invasion in human SH-SY5Y cells measured using transwell chamber by crystal violet staining based microscopic analysis; format: functional; conditions: dose 0.2-0.6 µM
[9] = test system: SJSA-1; experiment: Antiproliferative activity against human SJSA-1 cells overexpressing MDM2 assessed as cell growth inhibition incubated for 72 hrs by CCK-8 assay; format: functional, cell-based; conditions: SJSA-1, 72 h
[10] = test system: SH-SY5Y; experiment: Inhibition of cell migration in human SH-SY5Y cells measured using transwell chamber by crystal violet staining based microscopic analysis; format: functional; conditions: dose 0.2-0.6 µM
[11] = test system: SH-SY5Y; experiment: Inhibition of colony formation in human SH-SY5Y cells incubated at 0.6 uM for 8 to 15 days measured by crystal violet staining based microscopic analysis; format: functional, cell-based; conditions: time 8-15 day
[12] = target: E3 ubiquitin-protein ligase Mdm2 (Homo sapiens, UniProt Q00987); experiment: Binding affinity to MDM2 (1 to 118 residues) (unknown origin) assessed as inhibition constant incubated for 1 hr measured by fluorescence polarization assay
Chain of E3 ubiquitin-protein ligase Mdm2 (Q00987 whole entry, the tested form may be a part): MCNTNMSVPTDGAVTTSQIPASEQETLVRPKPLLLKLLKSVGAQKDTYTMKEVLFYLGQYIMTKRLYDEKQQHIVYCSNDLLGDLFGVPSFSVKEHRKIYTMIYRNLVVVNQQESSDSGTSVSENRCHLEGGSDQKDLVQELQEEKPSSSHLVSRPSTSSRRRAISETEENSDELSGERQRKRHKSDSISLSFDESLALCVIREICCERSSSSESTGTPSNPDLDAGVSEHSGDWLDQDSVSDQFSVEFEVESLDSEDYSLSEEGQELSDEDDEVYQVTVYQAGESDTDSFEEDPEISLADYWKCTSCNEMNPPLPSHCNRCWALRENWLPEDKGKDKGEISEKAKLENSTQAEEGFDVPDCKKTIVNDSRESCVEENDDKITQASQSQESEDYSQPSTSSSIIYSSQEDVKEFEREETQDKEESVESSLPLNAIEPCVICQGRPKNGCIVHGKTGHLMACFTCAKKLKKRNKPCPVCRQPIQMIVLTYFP

[13] = test system: SH-SY5Y; experiment: Antiproliferative activity against human SH-SY5Y cells overexpressing MDMX assessed as cell growth inhibition incubated for 72 hrs by CCK-8 assay; format: functional, cell-based
[14] = target: T1, Protein Mdm4 (Homo sapiens, UniProt O15151); experiment: Binding affinity to MDMX (1 to 118 residues) (unknown origin) assessed as inhibition constant incubated for 1 hr measured by fluorescence polarization assay
T1 sequence (O15151 whole entry): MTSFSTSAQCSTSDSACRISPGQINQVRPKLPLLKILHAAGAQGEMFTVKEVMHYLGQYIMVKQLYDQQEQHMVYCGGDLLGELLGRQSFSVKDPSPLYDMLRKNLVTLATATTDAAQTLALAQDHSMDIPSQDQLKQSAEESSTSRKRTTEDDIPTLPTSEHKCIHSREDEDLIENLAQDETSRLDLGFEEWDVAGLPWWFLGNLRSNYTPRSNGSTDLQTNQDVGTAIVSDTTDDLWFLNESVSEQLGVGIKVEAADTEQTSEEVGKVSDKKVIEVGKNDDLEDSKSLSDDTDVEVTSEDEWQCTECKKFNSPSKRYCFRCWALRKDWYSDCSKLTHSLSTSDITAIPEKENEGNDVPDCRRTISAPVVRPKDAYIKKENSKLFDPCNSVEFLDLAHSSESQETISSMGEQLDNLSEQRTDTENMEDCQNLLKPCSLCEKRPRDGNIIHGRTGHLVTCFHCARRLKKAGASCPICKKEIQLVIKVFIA

[15] = test system: HCT-116; experiment: Antiproliferative activity against human HCT-116 cells overexpressing MDM2 assessed as cell growth inhibition incubated at 10 uM for 72 hrs by CCK-8 assay relative to control; format: functional
[16] = test system: SH-SY5Y; experiment: Antiproliferative activity against human SH-SY5Y cells overexpressing MDMX assessed as cell growth inhibition incubated at 10 uM for 72 hrs by CCK-8 assay relative to control; format: functional
[17] = test system: SH-SY5Y; experiment: Reactivation of p53 pathway in human SH-SY5Y cells assessed as increase in cleaved caspase 3level treated at 0.6 to 2.4 uM for 48 hrs measured by Western blotting analysis; format: cell-based; conditions: dose 0.6-2.4 µM
[18] = target: Cellular tumor antigen p53 (Homo sapiens) (UniProt P04637); experiment: Reactivation of p53 pathway in human HCT-116 cells assessed as increase in MDMX level treated at 0.6 to 2.4 uM for 48 hrs measured by Western blotting analysis; format: cell-based; conditions: dose 0.6-2.4 µM
Chain of Cellular tumor antigen p53 (Homo sapiens) (P04637 whole entry, looked up): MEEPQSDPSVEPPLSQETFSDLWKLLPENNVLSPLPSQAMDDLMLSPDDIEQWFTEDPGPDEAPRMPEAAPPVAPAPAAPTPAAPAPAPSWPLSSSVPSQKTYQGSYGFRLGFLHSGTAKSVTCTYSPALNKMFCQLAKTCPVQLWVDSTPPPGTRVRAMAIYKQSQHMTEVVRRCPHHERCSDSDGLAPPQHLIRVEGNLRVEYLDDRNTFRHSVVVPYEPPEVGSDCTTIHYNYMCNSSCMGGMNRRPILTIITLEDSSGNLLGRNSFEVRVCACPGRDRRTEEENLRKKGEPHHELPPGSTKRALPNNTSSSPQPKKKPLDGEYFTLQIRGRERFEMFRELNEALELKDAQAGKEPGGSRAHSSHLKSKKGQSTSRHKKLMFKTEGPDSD

[19] = test system: SH-SY5Y; experiment: Induction of cell cycle arrest in human SH-SY5Y cells assessed as decrease in accumulation of cells at G2 phase incubated at 0.6 to 2.4 uM for 48 hrs by measured by flow cytometric analysis; format: functional, cell-based; conditions: dose 0.6-2.4 µM
[20] = test system: HCT-116; experiment: Induction of apoptosis in human HCT-116 cells assessed as apoptotic cells at 2.4 uM for 48 hrs measured by Annexin V-PI based flow cytometric analysis relative to control; format: functional
[21] = target: Cellular tumor antigen p53 (Homo sapiens) (UniProt P04637); experiment: Reactivation of p53 pathway in human HCT-116 cells assessed as increase in MDM2 level treated at 0.6 to 2.4 uM for 48 hrs measured by Western blotting analysis; format: cell-based; conditions: dose 0.6-2.4 µM
[22] = test system: HCT-116; experiment: Reactivation of p53 pathway in human HCT-116 cells assessed as increase in cleaved caspase 3 level treated at 0.6 to 2.4 uM for 48 hrs measured by Western blotting analysis; format: cell-based; conditions: dose 0.6-2.4 µM
[23] = test system: SH-SY5Y; experiment: Reactivation of p53 pathway in human SH-SY5Y cells assessed as increase in MDMX level treated at 0.6 to 2.4 uM for 48 hrs measured by Western blotting analysis; format: cell-based; conditions: dose 0.6-2.4 µM
[24] = test system: SH-SY5Y; experiment: Induction of cell cycle arrest in human SH-SY5Y cells assessed as increase in accumulation of cells at G1 phase incubated at 0.6 to 2.4 uM for 48 hrs by measured by flow cytometric analysis; format: functional, cell-based; conditions: dose 0.6-2.4 µM
[25] = test system: SH-SY5Y; experiment: Induction of apoptosis in human SH-SY5Y cells assessed as apoptotic cells at 2.4 uM for 48 hrs measured by Annexin V-PI based flow cytometric analysis relative to control; format: functional
[26] = test system: HCT-116; experiment: Induction of cell cycle arrest in human HCT-116 cells assessed as decrease in accumulation of cells at G2 phase incubated at 0.6 to 2.4 uM for 48 hrs by measured by flow cytometric analysis; format: functional, cell-based; conditions: dose 0.6-2.4 µM
[27] = test system: HCT-116; experiment: Reactivation of p53 pathway in human HCT-116 cells assessed as increase in p53 level treated at 0.6 to 2.4 uM for 48 hrs measured by Western blotting analysis; format: cell-based; conditions: dose 0.6-2.4 µM
[28] = target: Cellular tumor antigen p53 (Homo sapiens) (UniProt P04637); experiment: Reactivation of p53 pathway in human HCT-116 cells assessed as increase in p21 level treated at 0.6 to 2.4 uM for 48 hrs measured by Western blotting analysis; format: cell-based; conditions: dose 0.6-2.4 µM
[29] = test system: HCT-116; experiment: Induction of cell cycle arrest in human HCT-116 cells assessed as increase in accumulation of cells at G1 phase incubated at 0.6 to 2.4 uM for 48 hrs by measured by flow cytometric analysis; format: functional, cell-based; conditions: dose 0.6-2.4 µM
[30] = test system: HCT-116; experiment: Induction of apoptosis in human HCT-116 cells assessed as apoptotic cells at 0.6 uM for 48 hrs measured by Annexin V-PI based flow cytometric analysis relative to control; format: functional
[31] = test system: SH-SY5Y; experiment: Induction of apoptosis in human SH-SY5Y cells assessed as apoptotic cells at 0.6 uM for 48 hrs measured by Annexin V-PI based flow cytometric analysis relative to control; format: functional
[32] = test system: SH-SY5Y; experiment: Reactivation of p53 pathway in human SH-SY5Y cells assessed as increase in p53 level treated at 0.6 to 2.4 uM for 48 hrs measured by Western blotting analysis; format: cell-based; conditions: dose 0.6-2.4 µM
[33] = target: Tumour suppressor p53/oncoprotein Mdm2 (Homo sapiens) (UniProt P04637+Q00987); experiment: Inhibition of protein binding in p53/MDM2 in human HCT116 cells assessed as disruption of protein-protein interaction measured at 1.2 uM for 48 hrs by co-immunoprecipitation based Western blotting analysis; format: cell-based; conditions: HCT-116
Chain of Tumour suppressor p53/oncoprotein Mdm2 (Homo sapiens) (P04637 whole entry, looked up): as above
Chain of Tumour suppressor p53/oncoprotein Mdm2 (Homo sapiens) (Q00987 whole entry, looked up): as the sequence (Q00987 whole entry, the tested form may be a part) above

[34] = test system: SH-SY5Y; experiment: Reactivation of p53 pathway in human SH-SY5Y cells assessed as increase in MDM2 level treated at 0.6 to 2.4 uM for 48 hrs measured by Western blotting analysis; format: cell-based; conditions: dose 0.6-2.4 µM
[35] = test system: SH-SY5Y; experiment: Reactivation of p53 pathway in human SH-SY5Y cells assessed as increase in p21 level treated at 0.6 to 2.4 uM for 48 hrs measured by Western blotting analysis; format: cell-based; conditions: dose 0.6-2.4 µM

SMILES	inhibition [1]	inhibition [2]	IC50 at 72 h [3] [µM]	inhibition [4]	IC50 [5] [µM]	IC50 at 72 h [6] [µM]	IC50 [7] [µM]	inhibition [8]	IC50 [9] [nM]	inhibition [10]	inhibition [11]	Ki [12] [nM]	IC50 [13] [nM]	Ki [14] [µM]	further results
CN(C)C1CCN(C(=O)CCC(=O)N(c2ccc(Cl)cc2)C(C(=O)c2ccc(Cl)cc2)c2ccc(F)cc2Cl)CC1 (centres undefined)	Active	Dose-Dependent Effect	16.3	Dose-Dependent Effect	13.6	12.7	0.72	Dose-Dependent Effect	640	Dose-Dependent Effect	Active	280	690	3.46	
COc1ccc(C2=N[C@H](c3ccc(Cl)cc3)[C@H](c3ccc(Cl)cc3)N2C(=O)N2CCNC(=O)C2)c(OC(C)C)c1	Active				29.5		11.3				Active				inhibition at 10 µM [15]: 49.2%; inhibition at 10 µM [16]: 46.5%
O=C(c1ccc(Cl)cc1)C(c1ccc(F)cc1Cl)N(C(=O)CCC(=O)N1CCNCC1)c1ccc(Cl)cc1 (centres undefined)	Active	Dose-Dependent Effect	18	Dose-Dependent Effect	14	15.9	0.68	Dose-Dependent Effect	580	Dose-Dependent Effect	Active	230	540	2.45	Activity [17]: Active; Activity [18]: Active; Activity [19]: Active; Activity [20]: 37.6%; Activity [21]: Active; Activity [22]: Active; Activity [23]: Active; Activity [24]: Active; Activity [25]: 40.8%; Activity [26]: Active; Activity [27]: Active; Activity [28]: Active; Activity [29]: Active; Activity [30]: 13.63%; Activity [31]: 15.69%; Activity [32]: Active; inhibition [33]: Active; Activity [34]: Active; Activity [35]: Active
COC(=O)c1ccc(C(=O)N(c2ccc(Cl)cc2)C(C(=O)c2ccc(Cl)cc2)c2ccc(F)cc2Cl)cc1 (centres undefined)					20.8		8.86		10200			1060	7330	12.9	
